# The source made the active and inactive calls. Rule as the data show it, for most assays here: actives have a measured Kd and inactives only a lower limit.
# Target: T1, Serine/threonine-protein kinase ULK1 (Homo sapiens, UniProt O75385)
# T1 sequence (O75385 whole entry): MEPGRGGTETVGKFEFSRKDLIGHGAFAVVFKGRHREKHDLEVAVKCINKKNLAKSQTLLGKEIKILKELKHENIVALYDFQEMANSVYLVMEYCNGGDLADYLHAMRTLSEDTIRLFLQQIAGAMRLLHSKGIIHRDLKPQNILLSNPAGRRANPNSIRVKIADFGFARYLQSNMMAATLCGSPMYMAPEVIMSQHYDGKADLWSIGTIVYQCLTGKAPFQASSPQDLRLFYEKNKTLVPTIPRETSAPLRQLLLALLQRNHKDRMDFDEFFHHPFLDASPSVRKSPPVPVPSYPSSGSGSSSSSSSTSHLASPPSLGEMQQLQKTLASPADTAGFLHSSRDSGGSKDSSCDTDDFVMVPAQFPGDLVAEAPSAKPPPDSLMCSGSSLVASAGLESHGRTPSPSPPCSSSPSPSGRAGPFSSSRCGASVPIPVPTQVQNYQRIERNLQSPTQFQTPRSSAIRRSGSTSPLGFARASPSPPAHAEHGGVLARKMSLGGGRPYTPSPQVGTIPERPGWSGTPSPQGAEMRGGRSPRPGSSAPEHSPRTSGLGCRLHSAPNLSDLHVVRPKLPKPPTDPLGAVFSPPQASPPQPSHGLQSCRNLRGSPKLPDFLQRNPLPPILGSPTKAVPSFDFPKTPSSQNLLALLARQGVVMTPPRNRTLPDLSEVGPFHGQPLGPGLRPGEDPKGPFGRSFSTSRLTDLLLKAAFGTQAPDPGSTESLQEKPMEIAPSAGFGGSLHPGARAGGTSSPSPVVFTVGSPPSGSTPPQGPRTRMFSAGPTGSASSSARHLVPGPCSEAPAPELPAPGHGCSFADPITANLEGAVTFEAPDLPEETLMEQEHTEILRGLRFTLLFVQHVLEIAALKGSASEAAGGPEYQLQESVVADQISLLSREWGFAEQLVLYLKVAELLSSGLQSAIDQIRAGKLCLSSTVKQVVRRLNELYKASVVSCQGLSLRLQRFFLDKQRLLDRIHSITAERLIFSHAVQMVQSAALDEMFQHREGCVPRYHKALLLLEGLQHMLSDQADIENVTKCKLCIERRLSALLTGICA
# Also: in the data inactive means no Kd found up to 30 µM.
row,SMILES,Kd
1,CN1CCC(CNc2ccc3ncc(-c4cccc(OC(F)(F)F)c4)n3n2)CC1 [SGI-1776],> 30 µM (inactive)
2,C[C@@H]1CN(Cc2ccc(F)cc2)[C@@H](C)CN1C(=O)c1cc2c(C(=O)C(=O)N(C)C)cn(C)c2cc1Cl [TALMAPIMOD],> 30 µM (inactive)
3,O=c1sn(-c2cccc3ccccc23)c(=O)n1Cc1ccccc1 [TIDEGLUSIB],> 30 µM (inactive)
4,CC(=O)Nc1cccc(-n2c(=O)n(C3CC3)c(=O)c3c(Nc4ccc(I)cc4F)n(C)c(=O)c(C)c32)c1 [TRAMETINIB],> 30 µM (inactive)

# Target: T2, MAP kinase-activated protein kinase 5 (Homo sapiens, UniProt Q8IW41)
# T2 sequence (Q8IW41 whole entry): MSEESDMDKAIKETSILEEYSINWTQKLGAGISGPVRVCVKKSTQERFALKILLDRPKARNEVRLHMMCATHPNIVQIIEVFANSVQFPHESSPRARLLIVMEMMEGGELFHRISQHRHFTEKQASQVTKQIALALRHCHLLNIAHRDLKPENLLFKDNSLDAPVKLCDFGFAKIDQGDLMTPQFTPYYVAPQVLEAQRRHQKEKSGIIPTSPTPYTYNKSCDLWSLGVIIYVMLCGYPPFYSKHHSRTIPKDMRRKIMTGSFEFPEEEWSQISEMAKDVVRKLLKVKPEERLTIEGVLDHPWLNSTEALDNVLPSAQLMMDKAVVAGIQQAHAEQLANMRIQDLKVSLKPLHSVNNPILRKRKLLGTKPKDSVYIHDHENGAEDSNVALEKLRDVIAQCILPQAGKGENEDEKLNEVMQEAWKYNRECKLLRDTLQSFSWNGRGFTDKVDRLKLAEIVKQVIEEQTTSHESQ
row,SMILES,Kd
1,CN1CCC(CNc2ccc3ncc(-c4cccc(OC(F)(F)F)c4)n3n2)CC1 [SGI-1776],> 30 µM (inactive)
2,C[C@@H]1CN(Cc2ccc(F)cc2)[C@@H](C)CN1C(=O)c1cc2c(C(=O)C(=O)N(C)C)cn(C)c2cc1Cl [TALMAPIMOD],> 30 µM (inactive)
3,O=c1sn(-c2cccc3ccccc23)c(=O)n1Cc1ccccc1 [TIDEGLUSIB],> 30 µM (inactive)
4,CC(=O)Nc1cccc(-n2c(=O)n(C3CC3)c(=O)c3c(Nc4ccc(I)cc4F)n(C)c(=O)c(C)c32)c1 [TRAMETINIB],> 30 µM (inactive)

# Target: Calcium/calmodulin-dependent protein kinase kinase 2 (Homo sapiens, UniProt Q96RR4)
# Sequence (Q96RR4 whole entry): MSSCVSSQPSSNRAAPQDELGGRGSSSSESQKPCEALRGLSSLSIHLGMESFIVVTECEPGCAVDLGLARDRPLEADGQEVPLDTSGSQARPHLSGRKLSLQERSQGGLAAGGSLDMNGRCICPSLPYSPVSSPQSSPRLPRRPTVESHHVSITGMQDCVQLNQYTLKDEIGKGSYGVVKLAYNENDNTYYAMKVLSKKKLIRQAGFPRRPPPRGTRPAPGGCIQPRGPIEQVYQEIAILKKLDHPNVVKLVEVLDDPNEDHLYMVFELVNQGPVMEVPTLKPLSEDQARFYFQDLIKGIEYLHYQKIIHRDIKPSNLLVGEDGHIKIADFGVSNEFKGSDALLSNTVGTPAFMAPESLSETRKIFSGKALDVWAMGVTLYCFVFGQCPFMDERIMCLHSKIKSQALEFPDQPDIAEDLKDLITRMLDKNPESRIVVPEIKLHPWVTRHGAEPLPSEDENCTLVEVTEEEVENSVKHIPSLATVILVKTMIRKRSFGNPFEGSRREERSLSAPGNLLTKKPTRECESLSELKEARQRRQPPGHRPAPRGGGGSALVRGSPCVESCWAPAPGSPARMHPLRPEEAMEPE
row,SMILES,Kd
1,CN1CCC(CNc2ccc3ncc(-c4cccc(OC(F)(F)F)c4)n3n2)CC1 [SGI-1776],> 30 µM (inactive)
2,C[C@@H]1CN(Cc2ccc(F)cc2)[C@@H](C)CN1C(=O)c1cc2c(C(=O)C(=O)N(C)C)cn(C)c2cc1Cl [TALMAPIMOD],> 30 µM (inactive)
3,O=c1sn(-c2cccc3ccccc23)c(=O)n1Cc1ccccc1 [TIDEGLUSIB],> 30 µM (inactive)
4,CC(=O)Nc1cccc(-n2c(=O)n(C3CC3)c(=O)c3c(Nc4ccc(I)cc4F)n(C)c(=O)c(C)c32)c1 [TRAMETINIB],> 30 µM (inactive)

# Target: Insulin-like growth factor 1 receptor (Homo sapiens, UniProt P08069)
# Sequence (P08069 31-736 limits assumed): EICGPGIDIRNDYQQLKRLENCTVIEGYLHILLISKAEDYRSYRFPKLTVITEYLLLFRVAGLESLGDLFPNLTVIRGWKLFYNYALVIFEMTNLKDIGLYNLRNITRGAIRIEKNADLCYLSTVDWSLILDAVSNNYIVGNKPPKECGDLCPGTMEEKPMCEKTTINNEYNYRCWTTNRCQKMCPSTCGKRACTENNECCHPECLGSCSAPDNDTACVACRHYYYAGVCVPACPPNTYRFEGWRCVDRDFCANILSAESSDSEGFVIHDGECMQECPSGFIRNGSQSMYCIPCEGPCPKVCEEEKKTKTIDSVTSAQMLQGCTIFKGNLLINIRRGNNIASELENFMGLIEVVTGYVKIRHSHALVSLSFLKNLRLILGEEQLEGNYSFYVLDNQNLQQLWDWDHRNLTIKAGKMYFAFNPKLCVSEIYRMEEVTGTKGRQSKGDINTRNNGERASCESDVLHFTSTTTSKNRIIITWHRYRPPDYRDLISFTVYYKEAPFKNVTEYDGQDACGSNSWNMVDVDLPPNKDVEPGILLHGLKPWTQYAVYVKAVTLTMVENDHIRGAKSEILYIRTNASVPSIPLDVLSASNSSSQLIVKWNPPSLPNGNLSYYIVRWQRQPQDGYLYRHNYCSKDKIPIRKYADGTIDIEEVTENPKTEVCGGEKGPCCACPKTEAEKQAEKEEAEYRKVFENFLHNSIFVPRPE
# Sequence (P08069 741-1367 limits assumed): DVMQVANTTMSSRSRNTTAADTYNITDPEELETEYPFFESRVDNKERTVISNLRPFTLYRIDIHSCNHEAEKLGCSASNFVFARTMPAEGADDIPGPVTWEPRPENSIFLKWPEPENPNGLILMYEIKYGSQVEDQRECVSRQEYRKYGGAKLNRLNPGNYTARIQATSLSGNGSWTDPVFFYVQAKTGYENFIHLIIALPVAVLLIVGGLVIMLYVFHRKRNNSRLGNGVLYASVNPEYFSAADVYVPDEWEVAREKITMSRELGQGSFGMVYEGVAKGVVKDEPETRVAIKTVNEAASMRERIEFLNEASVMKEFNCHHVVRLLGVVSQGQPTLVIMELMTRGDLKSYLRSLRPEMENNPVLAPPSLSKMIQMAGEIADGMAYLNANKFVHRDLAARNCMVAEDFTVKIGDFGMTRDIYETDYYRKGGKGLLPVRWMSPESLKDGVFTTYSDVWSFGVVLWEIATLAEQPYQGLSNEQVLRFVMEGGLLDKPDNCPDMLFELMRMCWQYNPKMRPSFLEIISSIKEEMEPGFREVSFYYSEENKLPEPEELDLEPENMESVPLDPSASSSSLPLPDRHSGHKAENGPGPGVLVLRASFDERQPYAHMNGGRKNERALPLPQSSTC
row,SMILES,Kd
1,CN1CCC(CNc2ccc3ncc(-c4cccc(OC(F)(F)F)c4)n3n2)CC1 [SGI-1776],> 30 µM (inactive)
2,C[C@@H]1CN(Cc2ccc(F)cc2)[C@@H](C)CN1C(=O)c1cc2c(C(=O)C(=O)N(C)C)cn(C)c2cc1Cl [TALMAPIMOD],> 30 µM (inactive)
3,O=c1sn(-c2cccc3ccccc23)c(=O)n1Cc1ccccc1 [TIDEGLUSIB],> 30 µM (inactive)
4,CC(=O)Nc1cccc(-n2c(=O)n(C3CC3)c(=O)c3c(Nc4ccc(I)cc4F)n(C)c(=O)c(C)c32)c1 [TRAMETINIB],> 30 µM (inactive)

# Target: T3, Phosphorylase b kinase gamma catalytic chain, liver/testis isoform (Homo sapiens, UniProt P15735)
# T3 sequence (P15735 whole entry): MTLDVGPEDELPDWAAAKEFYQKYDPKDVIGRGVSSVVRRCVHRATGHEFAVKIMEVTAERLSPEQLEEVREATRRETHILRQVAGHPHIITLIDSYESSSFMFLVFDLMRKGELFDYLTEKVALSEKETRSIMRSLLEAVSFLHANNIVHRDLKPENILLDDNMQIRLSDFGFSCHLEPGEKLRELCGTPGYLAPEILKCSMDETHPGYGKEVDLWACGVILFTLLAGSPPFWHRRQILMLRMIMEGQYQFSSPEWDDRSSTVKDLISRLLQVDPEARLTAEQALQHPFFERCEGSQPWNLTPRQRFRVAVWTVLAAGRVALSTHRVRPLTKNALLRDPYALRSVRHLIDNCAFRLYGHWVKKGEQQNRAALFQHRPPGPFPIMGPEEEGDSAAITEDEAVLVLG
row,SMILES,Kd
1,CN1CCC(CNc2ccc3ncc(-c4cccc(OC(F)(F)F)c4)n3n2)CC1 [SGI-1776],> 30 µM (inactive)
2,C[C@@H]1CN(Cc2ccc(F)cc2)[C@@H](C)CN1C(=O)c1cc2c(C(=O)C(=O)N(C)C)cn(C)c2cc1Cl [TALMAPIMOD],> 30 µM (inactive)
3,O=c1sn(-c2cccc3ccccc23)c(=O)n1Cc1ccccc1 [TIDEGLUSIB],> 30 µM (inactive)
4,CC(=O)Nc1cccc(-n2c(=O)n(C3CC3)c(=O)c3c(Nc4ccc(I)cc4F)n(C)c(=O)c(C)c32)c1 [TRAMETINIB],> 30 µM (inactive)

# Target: Focal adhesion kinase 1 (Homo sapiens, UniProt Q05397)
# Sequence (Q05397 whole entry): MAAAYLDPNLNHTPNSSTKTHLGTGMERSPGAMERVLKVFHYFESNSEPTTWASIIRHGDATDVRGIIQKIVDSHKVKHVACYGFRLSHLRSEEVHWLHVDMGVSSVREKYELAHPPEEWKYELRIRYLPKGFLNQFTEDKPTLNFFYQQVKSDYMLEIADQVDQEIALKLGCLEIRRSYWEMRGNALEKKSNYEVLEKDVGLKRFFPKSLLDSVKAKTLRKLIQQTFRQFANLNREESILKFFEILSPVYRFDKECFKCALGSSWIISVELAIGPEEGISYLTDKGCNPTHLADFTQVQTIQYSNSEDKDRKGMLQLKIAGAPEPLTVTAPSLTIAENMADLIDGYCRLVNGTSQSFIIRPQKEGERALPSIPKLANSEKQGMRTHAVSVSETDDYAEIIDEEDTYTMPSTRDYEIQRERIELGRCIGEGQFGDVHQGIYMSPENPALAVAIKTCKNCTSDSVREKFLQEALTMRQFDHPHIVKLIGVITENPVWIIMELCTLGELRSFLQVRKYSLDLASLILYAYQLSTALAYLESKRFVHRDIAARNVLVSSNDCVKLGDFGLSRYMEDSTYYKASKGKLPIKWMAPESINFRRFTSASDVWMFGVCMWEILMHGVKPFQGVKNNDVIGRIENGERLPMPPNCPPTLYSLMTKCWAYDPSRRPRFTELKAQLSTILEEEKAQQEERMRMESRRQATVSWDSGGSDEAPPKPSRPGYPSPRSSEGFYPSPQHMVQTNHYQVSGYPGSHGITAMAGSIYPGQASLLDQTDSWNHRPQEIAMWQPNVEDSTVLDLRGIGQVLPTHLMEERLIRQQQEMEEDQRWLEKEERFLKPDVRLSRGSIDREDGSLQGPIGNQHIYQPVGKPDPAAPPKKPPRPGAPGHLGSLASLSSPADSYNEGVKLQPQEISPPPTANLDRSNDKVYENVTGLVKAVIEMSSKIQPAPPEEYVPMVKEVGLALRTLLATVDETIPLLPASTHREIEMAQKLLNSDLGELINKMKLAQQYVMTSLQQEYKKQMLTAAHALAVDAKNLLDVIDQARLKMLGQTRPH
row,SMILES,Kd
1,CN1CCC(CNc2ccc3ncc(-c4cccc(OC(F)(F)F)c4)n3n2)CC1 [SGI-1776],> 30 µM (inactive)
2,C[C@@H]1CN(Cc2ccc(F)cc2)[C@@H](C)CN1C(=O)c1cc2c(C(=O)C(=O)N(C)C)cn(C)c2cc1Cl [TALMAPIMOD],> 30 µM (inactive)
3,O=c1sn(-c2cccc3ccccc23)c(=O)n1Cc1ccccc1 [TIDEGLUSIB],> 30 µM (inactive)
4,CC(=O)Nc1cccc(-n2c(=O)n(C3CC3)c(=O)c3c(Nc4ccc(I)cc4F)n(C)c(=O)c(C)c32)c1 [TRAMETINIB],> 30 µM (inactive)

# Target: T4, Rab-like protein 3 (Homo sapiens, UniProt Q5HYI8)
# T4 sequence (Q5HYI8 whole entry): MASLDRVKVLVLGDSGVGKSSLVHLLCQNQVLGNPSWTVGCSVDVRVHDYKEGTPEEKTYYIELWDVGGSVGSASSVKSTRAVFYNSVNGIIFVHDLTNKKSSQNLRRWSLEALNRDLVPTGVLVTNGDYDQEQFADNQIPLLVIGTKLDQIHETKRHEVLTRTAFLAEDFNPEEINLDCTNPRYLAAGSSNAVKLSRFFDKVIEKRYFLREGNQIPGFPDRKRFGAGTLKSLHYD
row,SMILES,Kd
1,CN1CCC(CNc2ccc3ncc(-c4cccc(OC(F)(F)F)c4)n3n2)CC1 [SGI-1776],> 30 µM (inactive)
2,C[C@@H]1CN(Cc2ccc(F)cc2)[C@@H](C)CN1C(=O)c1cc2c(C(=O)C(=O)N(C)C)cn(C)c2cc1Cl [TALMAPIMOD],> 30 µM (inactive)
3,O=c1sn(-c2cccc3ccccc23)c(=O)n1Cc1ccccc1 [TIDEGLUSIB],> 30 µM (inactive)
4,CC(=O)Nc1cccc(-n2c(=O)n(C3CC3)c(=O)c3c(Nc4ccc(I)cc4F)n(C)c(=O)c(C)c32)c1 [TRAMETINIB],> 30 µM (inactive)

# Target: TGF-beta receptor type-2 (Homo sapiens, UniProt P37173)
# Sequence (P37173 whole entry): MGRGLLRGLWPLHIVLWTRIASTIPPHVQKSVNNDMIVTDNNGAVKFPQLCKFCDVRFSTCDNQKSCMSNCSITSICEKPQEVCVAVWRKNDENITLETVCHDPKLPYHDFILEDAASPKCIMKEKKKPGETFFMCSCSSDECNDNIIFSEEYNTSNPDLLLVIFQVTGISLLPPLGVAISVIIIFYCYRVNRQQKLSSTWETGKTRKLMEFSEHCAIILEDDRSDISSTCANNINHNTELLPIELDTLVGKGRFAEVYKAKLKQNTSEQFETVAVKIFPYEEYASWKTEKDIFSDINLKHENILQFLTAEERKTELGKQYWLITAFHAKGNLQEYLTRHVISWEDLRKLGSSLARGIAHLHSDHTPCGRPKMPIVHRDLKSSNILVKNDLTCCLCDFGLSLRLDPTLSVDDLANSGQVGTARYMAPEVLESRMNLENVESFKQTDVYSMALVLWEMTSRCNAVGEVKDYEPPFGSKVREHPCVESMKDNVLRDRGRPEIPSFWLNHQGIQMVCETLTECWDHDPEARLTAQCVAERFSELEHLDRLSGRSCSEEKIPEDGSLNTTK
row,SMILES,Kd
1,CN1CCC(CNc2ccc3ncc(-c4cccc(OC(F)(F)F)c4)n3n2)CC1 [SGI-1776],> 30 µM (inactive)
2,C[C@@H]1CN(Cc2ccc(F)cc2)[C@@H](C)CN1C(=O)c1cc2c(C(=O)C(=O)N(C)C)cn(C)c2cc1Cl [TALMAPIMOD],> 30 µM (inactive)
3,O=c1sn(-c2cccc3ccccc23)c(=O)n1Cc1ccccc1 [TIDEGLUSIB],> 30 µM (inactive)
4,CC(=O)Nc1cccc(-n2c(=O)n(C3CC3)c(=O)c3c(Nc4ccc(I)cc4F)n(C)c(=O)c(C)c32)c1 [TRAMETINIB],> 30 µM (inactive)

# From ChEMBL document CHEMBL3991601, “The target landscape of clinical kinase drugs” (Science, 2017)
